This note sets out measurements from a melting point compilation (Tetko et al.).

For the compound `CC(C)(C)OC(=O)Nc1csc(Br)c1`, the melting point (commonly the temperature, or range, at which the solid turns liquid) lay in the range of 84 to 86 °C.

As to `O=C(O)C=Cc1ccc(Cl)nc1`, the melting point lay in the range of 209 to 211 °C.

The compound `CC(C)(C)Cc1noc2ncc(C(=O)O)cc12` returned a melting point of 231 to 233 °C.

With `Cc1cccc(OC(C)C(=O)NN)c1C` (stereo unspecified), the melting point was 140 to 144 °C.

In turn, `CNC(=O)c1cnc(C)s1` showed a melting point of 172 to 174 °C.

`O=C(NO)C12CC3CC(CC(C3)C1)C2` yielded a melting point of 110 to 112 °C.

With `Cc1ccc(C)c(S(=O)(=O)Nc2cccc(C(=O)O)c2)c1`, the melting point is 217 to 219 °C.

`NS(=O)(=O)N1CCC(OC(=O)C(F)(F)F)CC1` showed a melting point of 126 to 128 °C.

The compound `O=C(O)CCNC(=O)N1CCc2ccccc2C1` yielded a melting point of 144 to 146 °C.

In turn, `COC(=O)c1ccc(N)cc1F` returned a melting point of 109 to 111 °C.

`O=C(O)C1CCCN1C1CCNCC1` (stereo unspecified): the melting point fell in the range of 197 to 199 °C.

Compound `NC(=O)c1ccc(-n2cccc2)cc1` had a melting point of 237 to 239 °C.

The compound `COc1ccc(N(C)S(=O)(=O)c2cccc(C(=O)O)c2)cc1` displayed a melting point of 172 to 174 °C.

`O=S1(=O)CCC(I)CC1` registered a melting point of 124 to 126 °C.

In turn, `CCN(CC)c1ccc(-c2nnc(S)n2-c2ccccc2C)cc1` yielded a melting point of 232 to 234 °C.

With `Cc1cc(C(=O)CCl)c(C)n1Cc1ccc(F)cc1`, the melting point was in the range of 94 to 96 °C.

With `O=S(=O)(NCCOc1ncc(C(F)(F)F)cc1Cl)c1c(F)cccc1F`, the melting point was in the range of 110 to 112 °C.

As to `C=CC(=O)NCc1cnc(C)s1`, the melting point fell in the range of 111 to 113 °C.

For `Nc1ccc(CN2C(=O)Cc3ccc(Cl)cc32)cc1`, the melting point fell in the range of 129 to 131 °C.

In the case of `O=c1cnc2ccccc2n1CCS(=O)(=O)F`, the melting point lay in the range of 145 to 147 °C.

For the compound `O=C(O)CCC1NC(=O)N(c2ccc(Cl)cc2)C1=O` (stereo unspecified), the melting point fell in the range of 212 to 214 °C.

For the compound `O=C1CCc2c(F)ccc(Br)c21`, the melting point was 129 to 131 °C.

For `NS(=O)(=O)c1cc(C(=O)O)ccc1F`, the melting point fell in the range of 236 to 238 °C.

For the compound `O=C(O)c1cc(-c2ccco2)nc2onc(-c3ccco3)c12`, the melting point was in the range of 269 to 271 °C.

In the case of `OCc1cccc(OCC(F)(F)F)c1`, the melting point lay in the range of 30 to 32 °C.

`C#Cc1nc2ccccc2s1`: the melting point was 39 to 41 °C.

Turning to `O=C1CCCc2sccc2N1`, the melting point lay within 119 to 121 °C.

`O=c1[nH]ncc2cccnc12` yielded a melting point of 309 to 311 °C.

Consider `NC(=O)c1nn(CC(=O)O)c(=O)c2ccccc12`, for which the melting point lay in the range of 220 to 222 °C.

Turning to `Cc1nnnn1-c1cccc(N)c1`, the melting point lay in the range of 121 to 123 °C.

`CC(=O)c1cc2c(cc1[N+](=O)[O-])OCO2` yielded a melting point of 121 to 123 °C.

As to `CN(C)C(=N)CC#N`, the melting point was 79 to 81 °C.

`Nc1ccc(C(=O)N2CCCC2)c(F)c1` came in with a melting point of 139 to 141 °C.

In turn, `O=c1c2ccccc2nc(S)n1CCCN1CCOCC1` came in with a melting point of 175 to 177 °C.

For `Cc1c(C(=O)O)cc(S(N)(=O)=O)cc1[N+](=O)[O-]`, the melting point lay within 172 to 174 °C.

The compound `O=C(O)/C=C/c1ccc2c(c1)OCCO2` yielded a melting point of 165 to 169 °C.

Take `Cc1cc(NC(N)=S)n(C)n1`: the melting point lay within 218 to 220 °C.

As to `NC(=O)CC1CCCC1`, the melting point lay within 149 to 151 °C.

On to `N#Cc1cc(S(N)(=O)=O)ccc1F`, for which the melting point is 142 to 144 °C.

Regarding `N#Cc1ccc(Cl)cc1NCc1ccccn1`, the melting point is 100 to 102 °C.

As to `CN1CCC(Nc2ccccc2N)CC1`, the melting point was in the range of 86 to 88 °C.

`Nc1cnc(Br)c(Br)c1`: the melting point fell in the range of 106 to 108 °C.

Regarding `CCOC(=O)Cc1nn[nH]n1`, the melting point was in the range of 120 to 127 °C.

As for `O=C1CCCc2nc(-c3ccncc3)sc21`, the melting point lay within 159 to 161 °C.

In turn, `CNS(=O)(=O)c1cc(Br)ccc1C` returned a melting point of 105 to 107 °C.

Turning to `O=C(O)c1ccc(S(=O)(=O)C(F)(F)F)cc1`, the melting point was 244 to 246 °C.

`CNC(=O)NC(=O)CCl` came in with a melting point of 155 to 157 °C.

Consider `COc1ccc(S(=O)(=O)Nc2nccs2)cc1`, for which the melting point fell in the range of 172 to 174 °C.

For `O=C(O)c1ccc(OCCO)cc1`, the melting point lay in the range of 177 to 179 °C.

With `CC(C)(C)OC(=O)NC(C)(C)c1noc(CCl)n1`, the melting point fell in the range of 79 to 81 °C.

Regarding `CC(C)CN(C(=O)CCl)c1c(N)n(CC(C)C)c(=O)[nH]c1=O`, the melting point was 153 to 155 °C.

`Cc1sc2ccc(Cl)cc2c1S(=O)(=O)Cl` returned a melting point of 148 to 150 °C.

Turning to `O=C(O)CCCCN1C(=O)C=CC1=O`, the melting point was 84 to 86 °C.

The compound `CC(Cl)C(=O)Nc1ccc(S(=O)(=O)N2CCCCC2)cc1` (stereo unspecified) yielded a melting point of 130 to 135 °C.

Turning to `O=C(O)CCN1C(=O)NC2(CCCCC2)C1=O`, the melting point is 100 to 102 °C.

With `Nc1cnn(-c2ccncc2)c1`, the melting point is 152 to 154 °C.

In turn, `Cc1oc(S(N)(=O)=O)cc1C(=O)O` displayed a melting point of 209 to 211 °C.

Regarding `CC(C)c1nc(I)c2ccccn12`, the melting point was in the range of 84 to 86 °C.

For the compound `Nc1cccc2[nH]cnc12`, the melting point lay in the range of 110 to 112 °C.

Compound `COc1cc(Br)ccc1C(=O)O` returned a melting point of 154 to 156 °C.

In the case of `Cc1c(N)cnn1CCC(C)C`, the melting point was 46 to 48 °C.

In the case of `N#CCC(=O)c1cccc(Br)c1`, the melting point lay within 94 to 96 °C.

`COc1ccc(C(=O)NN)cc1Br` had a melting point of 137 to 139 °C.

Turning to `CCC(CC(=O)O)c1ccc(OC)cc1` (stereo unspecified), the melting point lay in the range of 83 to 85 °C.

As to `N#Cc1ccc(Cl)cc1NCC1CC1`, the melting point was in the range of 52 to 54 °C.

With `Cc1cc(CC#N)c(C)n1-c1ccc(Cl)cc1`, the melting point lay within 74 to 76 °C.

The compound `O=C(CCCl)N1CCN(c2ccccn2)CC1` returned a melting point of 97 to 99 °C.

Compound `O=C(O)CNC(=O)NCc1ccco1` returned a melting point of 159 to 161 °C.

For `COc1cc(C#N)ccc1OC(F)F`, the melting point was 47 to 51 °C.

The compound `Cc1ccccc1C(N)=NO` showed a melting point of 81 to 83 °C.

In turn, `CC(C)C(Br)C(=O)c1ccccc1` (stereo unspecified) had a melting point of 49 to 51 °C.

Regarding `Nc1ccc(C(=O)Nc2cccnc2)cc1`, the melting point lay within 212 to 214 °C.

`CC(C)Oc1ccc(C(O)CN)cc1` (stereo unspecified) displayed a melting point of 62 to 64 °C.

On to `CCOc1ccc(S(=O)(=O)NCCC(=O)O)cc1`, for which the melting point fell in the range of 178 to 180 °C.

For `NC(=O)C1NCCc2ccccc21` (stereo unspecified), the melting point was 180 to 182 °C.

Compound `O=C1CCNc2ccccc2N1` yielded a melting point of 132 to 134 °C.

`N#CCC(=O)NC1CCCCC1` yielded a melting point of 132 to 134 °C.

Compound `N#Cc1ccc(Cc2cnc(N)s2)c(C(F)(F)F)c1` came in with a melting point of 196 to 198 °C.

Regarding `CC1CN(c2ccccc2N)CC(C)O1` (stereo unspecified), the melting point is 83 to 85 °C.

In turn, `Cc1ccc(-c2csc(CN)n2)cc1` gave a melting point of 72 to 74 °C.

With `Cc1cc(C)n(-c2ccc(C(=O)O)cc2F)n1`, the melting point lay in the range of 184 to 186 °C.

Consider `Cc1cccc(-c2nnc(C(C)Cl)o2)c1` (stereo unspecified), for which the melting point is less than 17 °C.

`COCCOc1ccc(C(F)(F)F)cc1N` registered a melting point of 43 to 47 °C.

`O=Cc1ccc(Oc2ccc(Cl)cc2[N+](=O)[O-])cc1` displayed a melting point of 69 to 71 °C.

`Clc1nnc(-c2ccccc2Cl)s1` gave a melting point of 93 to 95 °C.

In the case of `CCC(CO)N1CCNCC1` (stereo unspecified), the melting point lay in the range of 78 to 80 °C.

Turning to `NC(=O)COc1cccc(CCl)c1`, the melting point lay within 114 to 116 °C.

Turning to `O=C(O)CN(Cc1ccco1)c1cccc(Cl)c1`, the melting point lay within 115 to 117 °C.

The compound `Nc1ccc(S(=O)(=O)Nc2ccc(Cl)cc2)cc1N` returned a melting point of 146 to 150 °C.

The compound `CCS(=O)(=O)c1ccc(NC(=O)CCl)c(O)c1` yielded a melting point of 207 to 209 °C.

For the compound `CN1CCN(S(=O)(=O)c2ccc(Cl)nc2)CC1`, the melting point lay in the range of 129 to 131 °C.

As for `CCCn1c(=O)[nH]c2ccccc21`, the melting point is 96 to 100 °C.

For `CCC(=O)Nc1ccc(C)c(N)c1`, the melting point fell in the range of 121 to 123 °C.

Compound `CCCc1ccc(N)c(C(=O)O)c1` came in with a melting point of 116 to 118 °C.

`Cc1ccc(S(=O)(=O)NCCC(=O)O)cc1` gave a melting point of 148 to 150 °C.

In turn, `O=c1[nH]c(-c2cccc(Oc3ccccc3)c2)no1` had a melting point of 189 to 191 °C.

Compound `O=C1C=CC(=O)N1c1cc(Cl)cc(Cl)c1` yielded a melting point of 139 to 141 °C.

In the case of `C#CCNC(=O)CC#N`, the melting point lay in the range of 108 to 110 °C.

Consider `O=C(O)c1cn(-c2ccccc2)nn1`, for which the melting point was in the range of 138 to 140 °C.

For the compound `O=C(CCl)NCC#Cc1cccc(C(F)(F)F)c1`, the melting point is 80 to 82 °C.

Consider `CC1=NN(c2ccc(Cl)c(Cl)c2)C(=O)C1`, for which the melting point lay within 158 to 160 °C.

For `CC1=C(C(=O)O)CCC1`, the melting point was in the range of 130 to 132 °C.

`CC(C)Oc1cccc(C(O)CN)c1` (stereo unspecified) displayed a melting point of 52 to 54 °C.

On to `O=C(O)COc1ccc(Cl)cc1Br`, for which the melting point is 123 to 125 °C.

The compound `O=S1(=O)CCCC(O)C1` (stereo unspecified) registered a melting point of 99 to 101 °C.

`O=C(O)c1ccc(Cl)c(NC(=O)c2cccs2)c1`: the melting point lay within 166 to 168 °C.

Turning to `O=C(CCl)c1ccc(N2CCOC2=O)cc1`, the melting point fell in the range of 167 to 169 °C.

`Cn1cc(S(=O)(=O)Cl)cc1C(=O)C(Cl)(Cl)Cl` displayed a melting point of 158 to 160 °C.

The compound `Cc1ccc(-c2nn(-c3ccccc3)cc2C=O)o1` had a melting point of 112 to 114 °C.

Regarding `Nc1nc(-c2ccc[nH]2)cs1`, the melting point fell in the range of 155 to 159 °C.

`Cn1cc(Nc2ccc(=O)n(C)c2)ccc1=O` registered a melting point of 270 to 272 °C.

In turn, `O=C(O)c1sc(-c2ccccc2)cc1OCC(=O)N1CCCCC1` had a melting point of 164 to 166 °C.

With `O=C(O)c1ncoc1-c1ccccc1Cl`, the melting point is 194 to 196 °C.

`ClCc1nnc(-c2cc3c(s2)CCCC3)o1`: the melting point was in the range of 107 to 109 °C.

As for `O=C(O)Cc1ccc(NS(=O)(=O)c2cccc(C(F)(F)F)c2)cc1`, the melting point fell in the range of 122 to 124 °C.

For `NC(=O)CS(=O)(=O)c1ccc(C(=O)O)cc1`, the melting point lay within 255 to 257 °C.

Compound `Cc1ccc(Br)c(S(=O)(=O)Cl)c1` displayed a melting point of 57 to 59 °C.

As for `O=C(O)CNC(=O)/C=C/c1ccco1`, the melting point lay within 218 to 221 °C.

`CC1C=CC(C(=O)O)C2C(=O)N(c3ccccc3)C(=O)C12` (stereo unspecified): the melting point was 219 to 221 °C.

The compound `COc1ccc(-n2ccnc2S)c(C)c1` showed a melting point of 238 to 240 °C.

In turn, `Nc1c(-c2ccc(F)cc2)nc2sccn12` displayed a melting point of 137 to 139 °C.
